Test results: BindingDB's records for doi:10.7270/Q2TX3CTT (Broad Institute, 2010)
Structures can show the parent of a compound that is named as a salt.

Target: Glycogen synthase kinase-3 beta (Homo sapiens, UniProt P49841)
Experiment: GSK3beta kinase inhibitor potency, dose response, biochemical, luminescence, cell-free homogeneous, retest (AID 434954)

Chain of Glycogen synthase kinase-3 beta (P49841 whole entry): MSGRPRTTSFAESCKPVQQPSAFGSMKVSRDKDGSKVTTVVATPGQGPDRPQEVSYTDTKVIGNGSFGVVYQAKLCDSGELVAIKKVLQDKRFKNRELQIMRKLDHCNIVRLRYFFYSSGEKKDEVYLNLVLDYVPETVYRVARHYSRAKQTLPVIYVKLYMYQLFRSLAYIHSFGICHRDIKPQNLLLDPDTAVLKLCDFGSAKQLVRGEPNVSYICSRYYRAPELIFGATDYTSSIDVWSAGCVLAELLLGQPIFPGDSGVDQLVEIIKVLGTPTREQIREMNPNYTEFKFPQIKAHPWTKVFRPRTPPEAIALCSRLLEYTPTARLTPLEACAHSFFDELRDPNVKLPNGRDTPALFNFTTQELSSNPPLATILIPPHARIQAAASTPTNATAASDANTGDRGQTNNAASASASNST

With `Cc1nn(CC(=O)NCCCN2CCCCC2)c(=O)c2cc(-c3ccccc3)nn12` [SMR000631197] the EC50 was greater than 300 µM.
`COc1ccc(S(=O)(=O)CC(=O)c2cc3cccc(C)c3oc2=O)cc1` [SMR000634140] gave an EC50 greater than 300 µM.
`O=C1Nc2cc(C(=O)NCCN3CCCCCC3)ccc2S/C1=C\c1ccccc1` [SMR000635247] was tested, and the EC50 was greater than 300 µM.
`O=C1Nc2cc(C(=O)N3CCC(N4CCCCC4)CC3)ccc2S/C1=C\c1ccccc1` [SMR000635251] showed an EC50 of 16.9 µM.
In the case of `CC(C)Cc1ccccc1O` [SMR000639202], the EC50 is reported as greater than 300 µM.
With `O=Cc1cc(CCC(=O)O)ccc1O` [SMR000639316] the EC50 was greater than 300 µM.
`C[C@H](C(O)c1ccccc1)N(C)C(=O)CN` (stereo partly drawn) [SMR000639412] was tested, and the EC50 was greater than 300 µM.
`CN1CCc2c(sc(NC(=O)Cc3ccc(F)cc3)c2C(N)=O)C1` [SMR000641824] showed an EC50 greater than 300 µM.
Compound `COc1ccc(CC(=O)N2C[C@H]3C[C@@H](C2)c2cccc(=O)n2C3)cc1` [SMR000646314] has an EC50 greater than 300 µM.
Compound `Cc1cccc(COc2ccc(C=NNC(=O)c3nnn(-c4nonc4N)c3CN3CCCCC3)cc2)c1` [SMR000646486] has an EC50 greater than 300 µM.
For `Nc1nonc1-n1nnc(C(=O)NN=Cc2ccc(OCc3ccccc3F)cc2)c1CN1CCCCC1` [SMR000646487], the EC50 was greater than 300 µM.
With `Nc1nonc1-n1nnc(C(=O)NN=Cc2ccc(Br)cc2)c1CN1CCOCC1` [SMR000646504] the EC50 was greater than 300 µM.
For `CC(C)c1ccc(C=NNC(=O)c2nnn(-c3nonc3N)c2CN2CCOCC2)cc1` [SMR000646507], the EC50 was greater than 300 µM.
`Cc1ccc(SCc2c(C(=O)NN=Cc3ccoc3)nnn2-c2nonc2N)cc1` [SMR000647588] was tested, and the EC50 was greater than 300 µM.
`COc1ccc(S(=O)(=O)Nc2c(C(=O)O)[nH]c3ccc(OC)cc23)c(OC)c1` [SMR000650153] was tested, and the EC50 was 1.15 µM.
Work on `COc1ccc2cc(C(=O)C3CCCN(C(=O)c4sc(C)nc4C)C3)ccc2c1` (stereo not drawn) [SMR000653741] yielded an EC50 greater than 300 µM.
`COc1ccc(N(C(=O)c2ccncc2)S(=O)(=O)c2cccc([N+](=O)[O-])c2)cc1` [SMR000668685] showed an EC50 greater than 300 µM.
`O=C(CCS(=O)(=O)Cc1ccccc1)Nc1ncc([N+](=O)[O-])s1` [SMR000669229] showed an EC50 of 57.1 µM.
In the case of `CCn1c(SCC(=O)Nc2ccc(Br)cn2)nnc1C1CC1` [SMR000671057], the EC50 is reported as 75 µM.
For `C=CCN1C(=O)NC(=O)/C(=C/c2ccc(OCC(=O)Nc3ccc(C)cc3)cc2)C1=O` [SMR000673044], the EC50 was greater than 300 µM.
`O=C(O)c1ccc2c3n(nc2c1)-c1ccc(Cl)cc1CO3` [SMR000673552] was tested, and the EC50 was 55.5 µM.
With `Cc1ccc(NC(=O)NCCCN2CCCC2=O)cc1C` [SMR000677961] the EC50 was greater than 300 µM.
`COc1ccc(NC(=O)NC2CCCc3ccccc32)cc1` (stereo not drawn) [SMR000678136] showed an EC50 greater than 300 µM.
For `CCC(N=C(S)NC1CCCCC1)c1ccccc1` (stereo not drawn) [SMR000678367], the EC50 was greater than 300 µM.
`COc1cccc(NC(=O)NNS(=O)(=O)c2ccc(OC)cc2OC)c1` [SMR000679286] was tested, and the EC50 was greater than 300 µM.
`CCc1c(C(=O)Nc2ccccc2C(N)=O)csc1C` [SMR000679541] gave an EC50 greater than 300 µM.
`CCOc1ccc(/C=C2\CCCc3c2nc2ccccc2c3C(=O)O)cc1OC` [SMR000688807] gave an EC50 greater than 300 µM.
`Cc1ccnc(NC(=O)C2CC(=O)N(c3ccc4c(c3)OCCO4)C2)c1` (stereo not drawn) [SMR000709078] gave an EC50 of 25.6 µM.
For `Cc1cc(C)n2nc(C(=O)OCC(=O)NC(=O)c3ccccc3)nc2n1` [SMR000716574], the EC50 was greater than 300 µM.
`CCN1CCN(Cc2ccc(NC(=O)c3ccc(C)c(/C=C/c4cnc(Nc5cc(N6CCNCC6)nc(C)n5)cn4)c3)cc2C(F)(F)F)CC1` [SMR000718284] was tested, and the EC50 was greater than 300 µM.
Work on `O=C(CSc1ncnc2c1cnn2-c1ccc(F)cc1)NCC1CCCO1` (stereo not drawn) [SMR000806858] yielded an EC50 greater than 300 µM.
For `O=C(NCC(c1ccco1)N1CCOCC1)c1cccc(Cl)c1` (stereo not drawn) [SMR000808258], the EC50 was greater than 300 µM.
With `O=C(NCC(c1ccco1)N1CCN(c2ccc(F)cc2)CC1)c1cccs1` (stereo not drawn) [SMR000808277] the EC50 was greater than 300 µM.
Compound `Cc1ccccc1NC(=O)CSc1nnc2ccc(-c3ccncc3)nn12` [SMR000808359] has an EC50 greater than 300 µM.
In the case of `CC(=O)N1CCc2c(sc(NC(=O)CS(=O)(=O)c3ccc(F)cc3)c2C(N)=O)C1` [SMR000808580], the EC50 is reported as greater than 300 µM.
With `Cc1ccc2sc(N3CCN(CCNC(=O)c4ccco4)CC3)nc2c1C` [SMR000811862] the EC50 was greater than 300 µM.
Work on `O=C(NCC(c1ccco1)N1CCc2ccccc21)c1cccc([N+](=O)[O-])c1` (stereo not drawn) [SMR000811914] yielded an EC50 greater than 300 µM.
`COc1ccc(C)cc1S(=O)(=O)Nc1cc2c3c(c1)CCN3C(=O)CC2` [SMR000812053] showed an EC50 greater than 300 µM.
With `CNC(=O)c1ccsc1NC(=O)C1CCN(S(=O)(=O)c2ccc(Cl)s2)CC1` [SMR000812824] the EC50 was greater than 300 µM.
`CCN1C(=O)[C@H]2[C@@H](c3ccc(-c4ccccc4)cc3)N[C@@](CC(C)C)(C(=O)OC)[C@H]2C1=O` [SMR000814381] showed an EC50 greater than 300 µM.
Compound `CCCCCCSc1ccc([C@H]2N[C@@](CC(C)C)(C(=O)OC)[C@H]3C(=O)N(C)C(=O)[C@@H]23)cc1` [SMR000814394] has an EC50 greater than 300 µM.
Compound `CCn1nc(NC(=O)C2CCCO2)c2cc3cccc(C)c3nc21` (stereo not drawn) [Tetrahydro-furan-2-carboxylic acid (1-ethyl-8-methyl-1H-pyrazolo[3,4-b]quinolin-3-yl)-amide] has an EC50 greater than 300 µM.
`O=C(Nc1ncc(Cc2ccccc2Cl)s1)C1CCCO1` (stereo not drawn) [Tetrahydro-furan-2-carboxylic acid [5-(2-chloro-benzyl)-thiazol-2-yl]-amide] was tested, and the EC50 was 27.6 µM.
`CCCn1nc(NC(=O)c2cccs2)c2cc3ccccc3nc21` [Thiophene-2-carboxylic acid (1-propyl-1H-pyrazolo[3,4-b]quinolin-3-yl)-amide] was tested, and the EC50 was greater than 300 µM.
Work on `NC(=O)c1ncn([C@@H]2O[C@H](CO)[C@@H](O)[C@H]2O)n1` [Tribavirin] yielded an EC50 greater than 300 µM.
With `COc1cccc(OC)c1OCCNCC1COc2ccccc2O1` (stereo not drawn) [WB-4101 hydrochloride] the EC50 was greater than 300 µM.
`O=C(C1CCCN(S(=O)(=O)c2ccccc2)C1)N1CCN(c2ncccn2)CC1` (stereo not drawn) [[1-(phenylsulfonyl)piperidin-3-yl]-(4-pyrimidin-2-ylpiperazin-1-yl)methanone] gave an EC50 greater than 300 µM.
Work on `Cc1c(NC(=O)C(C)OC(=O)COc2ccccc2)c(=O)n(-c2ccccc2)n1C` (stereo not drawn) [[1-[(1,5-dimethyl-3-oxidanylidene-2-phenyl-pyrazol-4-yl)amino]-1-oxidanylidene-propan-2-yl] 2-phenoxyethanoate] yielded an EC50 greater than 300 µM.
`O=C(c1cccnc1)C1CCCN(Cc2nc(Cc3ccccc3)no2)C1` (stereo not drawn) [[1-[[3-(phenylmethyl)-1,2,4-oxadiazol-5-yl]methyl]-3-piperidinyl]-(3-pyridinyl)methanone] was tested, and the EC50 was greater than 300 µM.
In the case of `OCC1(Cc2ccccc2)CCN(Cc2ccc(-c3ccco3)cc2)CC1` [[1-[[4-(2-furanyl)phenyl]methyl]-4-(phenylmethyl)-4-piperidinyl]methanol], the EC50 is reported as greater than 300 µM.
Work on `Cc1ccccc1-c1nc(CN2CCC(C(=O)N3CCN(c4ccccn4)CC3)CC2)c(C)o1` [[1-[[5-methyl-2-(2-methylphenyl)-4-oxazolyl]methyl]-4-piperidinyl]-[4-(2-pyridinyl)-1-piperazinyl]methanone] yielded an EC50 greater than 300 µM.
`CN=C(NC#N)SCC(=O)c1ccc(Cl)cc1Cl` [[2-(2,4-dichlorophenyl)-2-oxidanylidene-ethyl] N-cyano-N'-methyl-carbamimidothioate] showed an EC50 of 3.19 µM.
`Cc1cnc(C(=O)OCC(=O)N2c3ccccc3CC2C)cn1` (stereo not drawn) [[2-(2-methyl-2,3-dihydroindol-1-yl)-2-oxoethyl] 5-methylpyrazine-2-carboxylate] showed an EC50 greater than 300 µM.
